Experiments:
human Notch 3 = assay: Notch-CBF1 Transactivation Assay (luciferase reporter, transfected HeLa cells), Notch 3; type: cell-based; conditions: read-out: Notch 3 (IC50); HeLa cells transfected with truncated Notch 3 and CBF1 luciferase reporter, 18 hours incubation
Description: (§1) Notch-CBF1 Transactivation Assay
(§2) The Notch-CBF1 (C-promoter binding factor I) cell based transactivation assay is based on the ability of the released Notch intracellular domain fragments (NICDs) to function as transcription factors in conjunction with CBF1 and other nuclear factors. Luciferase assays were used to measure the antagonism of Notch-CBF1 transcriptional activity. HeLa cervical cancer cells are transiently co-transfected with pCDNA3.1/Hygro plasmids containing truncated Notch 1, Notch 2, Notch 3, or Notch 4 receptors and a PGL3 luciferase reporter vector containing 4 copies of CBF1 binding site. The cells were then tested for Notch-CBF1 activity in the absence or presence of test compounds. HeLa cells, maintained in DMEM (high glucose with HEPES), 1× glutamine/penicillin/streptomycin and 10% Fetal Bovine serum, were transiently transfected in a T175 Flask (4.5×10^6 cells/flask) using the Monster Transfection Kit (Minis #MIR2906) according to manufacturers specifications. Table 2 denotes respective DNA quantity for the transfections.
(§3) Assay media (5 μL) containing test compounds in final concentrations ranging from 5 μM to 8.4×10^−5 μM (3 fold serial dilutions) were added to the cells and the cell plates were then incubated for 18 hours at 37° C. and 5% CO2. Control wells contained DMSO vehicle (total counts) or 0.5 μM of an in-house small molecule inhibitor (background counts). Duplicates were used for each sample. Luciferase activity was measured after a 20-minute incubation with 50 μl STEADY-GLO® luciferase reagents according to manufacturer's specifications (Promega, Cat. #E2550) and analyzed by Envision plate reader (PerkinElmer, Boston, Mass.).
(§4) The antagonist effect of compounds was expressed as 100×[1−(average sample−average background)/(average total−average background)] where sample is the luciferase activity in the presence of test compound, background is equal to the luciferase activity in the presence of the small molecule inhibitor control and the total is signal induced in DMSO wells.

[1] = Human metabolic stability half-life assay (liver microsomes); type: in vitro ADME; conditions: pH 7.4, human liver microsomes, CYP-mediated (NADPH-dependent), 0.5 μM compound, 45-minute time course, read-out: HLM (t1/2, min)
Method: Metabolic Stability Half-Life Panel
Result Interpretation Guideline
Incubation with Liver Microsomes
Sample Analysis—Instrumentation

human Notch 1 = assay: Notch-CBF1 Transactivation Assay (luciferase reporter, transfected HeLa cells), Notch 1; type: cell-based; conditions: read-out: Notch 1 (IC50); HeLa cells transfected with truncated Notch 1 and CBF1 luciferase reporter, 18 hours incubation
Description: as §1, §2, §3, §4

TALL-1 = assay: Human Tumor Xenograft Models in Mice, TALL-1; type: in vivo; conditions: for Antitumor Activity in TALL-1 (LCK), BID dosing: oral, BID × 10, TALL-1 xenograft in NOD-SCID mice; for antitumor activity with oral administration (PO): Human Tumor Xenograft Models in mice
Method: Human Tumor Xenograft Models in Mice
Mice were fed food and water ad libitum.
Preclinical Chemotherapy Trials
When death occurred, the day of death was recorded.
In Vivo Antitumor Activity

[2] = High Throughput (HT) Metabolic Stability Panel, monkey microsomes; type: in vitro ADME; conditions: ten-minute incubation, control compound expected values
Method: (§5) High Throughput (HT) Metabolic Stability Panel
(§6) Each compound was tested in duplicate.
(§7) Methods and Materials Incubation with Liver Microsomes
(§8) Peak integration was performed with the XCALIBUR® software.
(§9) A set of three compounds was tested along with the test compound in each assay plate.

[3] = High Throughput (HT) Metabolic Stability Panel, rat microsomes; type: in vitro ADME; conditions: ten-minute incubation, control compound expected values
Method: as §5, §6, §7, §8, §9

[4] = High Throughput (HT) Metabolic Stability Panel, mouse microsomes; type: in vitro ADME; conditions: ten-minute incubation, control compound expected values
Method: as §5, §6, §7, §8, §9

[5] = High Throughput (HT) Metabolic Stability Panel, dog microsomes; type: in vitro ADME; conditions: ten-minute incubation, control compound expected values
Method: as §5, §6, §7, §8, §9

[6] = High Throughput (HT) Metabolic Stability Panel, human microsomes; type: in vitro ADME; conditions: ten-minute incubation, control compound expected values
Method: as §5, §6, §7, §8, §9

Structure (SMILES)	IC50 (human Notch 3) [nM]	half-life at 0.5 μM [1] [min]	IC50 (human Notch 1) [nM]	antitumor activity with oral administration (PO) (TALL-1)	other results
Cc1cccc2c1NC(=O)[C@@H](NC(=O)[C@H](CCC(F)(F)F)[C@@H](C(N)=O)c1ccccc1)N=C2c1cccc(F)c1 [Example 5, (2R,3R)—N1-((S)-5-(3-Fluorophenyl)-9-methyl-2-oxo-2,3-dihydro-1H-benzo[e][1,4]diazepin-3-yl)-3-phenyl-2-(3,3,3-trifluoropropyl)succinamide]	14.2	≥ 30			
NC(=O)[C@@H](c1cccnc1)[C@@H](CCC(F)(F)F)C(=O)N[C@H]1N=C(c2ccccc2)c2ccccc2NC1=O [Example 10, (2R,3R)—N1-((S)-2-Oxo-5-phenyl-2,3-dihydro-1H-benzo[e][1,4]diazepin-3-yl)-3-(pyridin-3-yl)-2-(3,3,3-trifluoropropyl)succinamide]	22.9		19.3		
NC(=O)[C@@H](c1ccccc1)[C@@H](CCC(F)(F)F)C(=O)N[C@H]1N=C(c2ccccc2)c2ccccc2N(c2ccc(Cl)cn2)C1=O [Example 22, (2R,3R)—N-((3S)-1-(5-Chloro-2-pyridinyl)-2-oxo-5-phenyl-2,3-dihydro-1H-1,4-benzodiazepin-3-yl)-3-phenyl-2-(3,3,3-trifluoropropyl)succinamide]	11.6		16		
Cc1nocc1[C@H](C(N)=O)[C@@H](CCC(F)(F)F)C(=O)N[C@H]1N=C(c2ccccc2)c2ccccc2N(c2ccc(Cl)cn2)C1=O [Example 23, (2R,3R)—N-((3S)-1-(5-Chloro-2-pyridinyl)-2-oxo-5-phenyl-2,3-dihydro-1H-1,4-benzodiazepin-3-yl)-3-(3-methyl-4-isoxazolyl)-2-(3,3,3-trifluoropropyl)succinamide]	13.7	≥ 30	15.4		
COc1cc(C#N)cc2c1NC(=O)[C@@H](NC(=O)[C@H](CCC(F)(F)F)[C@@H](C(N)=O)c1ccccc1)N=C2c1ccccc1 [Example 25, (2R,3R)—N1-((S)-7-Cyano-9-methoxy-2-oxo-5-phenyl-2,3-dihydro-1H-benzo[e][1,4]diazepin-3-yl)-3-phenyl-2-(3,3,3-trifluoropropyl)succinamide]	19.1		24.2		
NC(=O)[C@@H](c1ccccc1)[C@@H](CCC(F)(F)F)C(=O)N[C@H]1N=C(c2ccccc2)c2cccc(OC3CC3)c2NC1=O [Example 26, (2R,3R)—N1-((S)-9-Cyclopropoxy-2-oxo-5-phenyl-2,3-dihydro-1H-benzo[e][1,4]diazepin-3-yl)-3-phenyl-2-(3,3,3-trifluoropropyl)succinamide]		≥ 30		showed antitumor activity	Antitumor Activity in TALL-1 (LCK), BID dosing (TALL-1; Dose 10 (unit not given)): 1.4 LCK
Cc1cccc2c1NC(=O)[C@@H](NC(=O)[C@H](CCC(F)(F)F)[C@@H](C(N)=O)c1ccccc1)N=C2c1ccccc1 [Example 30, (2R,3R)—N1-((S)-9-Methyl-2-oxo-5-phenyl-2,3-dihydro-1H-benzo[e][1,4]diazepin-3-yl)-3-phenyl-2-(3,3,3-trifluoropropyl)succinamide]		≥ 30		showed antitumor activity	Antitumor Activity in TALL-1 (LCK), BID dosing (TALL-1; Dose 20 (unit not given)): 1.2 LCK
Cc1cccc2c1NC(=O)[C@@H](NC(=O)[C@H](CCC(F)(F)F)[C@@H](C(N)=O)c1ccccc1)N=C2c1cccc(Cl)c1 [Example 31, (2R,3R)—N1-((S)-5-(3-Chlorophenyl)-9-methyl-2-oxo-2,3-dihydro-1H-benzo[e][1,4]diazepin-3-yl)-3-phenyl-2-(3,3,3-trifluoropropyl)succinamide]		≥ 30		showed antitumor activity	
Cc1cccc2c1NC(=O)[C@@H](NC(=O)[C@H](CCC(F)(F)F)[C@@H](C(N)=O)c1conc1C)N=C2c1ccc(F)cc1 [Example 33, (2R,3R)—N1-((S)-5-(4-Fluorophenyl)-9-methyl-2-oxo-2,3-dihydro-1H-benzo[e][1,4]diazepin-3-yl)-3-(3-methylisoxazol-4-yl)-2-(3,3,3-trifluoropropyl)succinamide]	11.5	≥ 30	19		
CCc1nn(CCCN2CCN(c3cccc(Cl)c3)CC2)c(=O)n1CCOc1ccccc1 [Nefazodone]					Average Percent Remaining ± SD, Monkey [2]: 0.6 ± 0.5%; Average Percent Remaining ± SD, Rat [3]: 0.7 ± 0.6%; Average Percent Remaining ± SD, Mouse [4]: 0.4 ± 0.3%; Average Percent Remaining ± SD, Dog [5]: 0.4 ± 0.4%; Average Percent Remaining ± SD, Human [6]: 0.4 ± 0.4%

From US9133139B2, “Fluoroalkyl-1,4-benzodiazepinone compounds” (BRISTOL-MYERS SQUIBB COMPANY, priority 2012, dated 2015)
